Target: T1, human IRAK-4 (Homo sapiens, UniProt Q9NWZ3)
T1 construct: purchased Carna Biosciences 09 145
T1 sequence (Q9NWZ3 1-460): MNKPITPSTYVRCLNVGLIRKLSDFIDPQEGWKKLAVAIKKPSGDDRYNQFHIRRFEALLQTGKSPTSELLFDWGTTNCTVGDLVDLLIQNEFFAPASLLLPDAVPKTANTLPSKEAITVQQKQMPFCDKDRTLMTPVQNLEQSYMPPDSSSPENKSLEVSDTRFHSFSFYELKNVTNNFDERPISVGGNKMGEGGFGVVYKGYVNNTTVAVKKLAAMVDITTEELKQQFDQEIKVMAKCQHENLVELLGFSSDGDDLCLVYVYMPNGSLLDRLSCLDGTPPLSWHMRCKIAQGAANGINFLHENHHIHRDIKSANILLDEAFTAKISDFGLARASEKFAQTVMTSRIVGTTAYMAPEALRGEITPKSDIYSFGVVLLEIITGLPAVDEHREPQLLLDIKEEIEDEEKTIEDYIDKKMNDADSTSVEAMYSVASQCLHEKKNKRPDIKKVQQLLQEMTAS
Test: Phosphorylation IC50 determination for human IRAK-4 (ADP-Glo Kinase Assay)
Conditions: human IRAK-4, substrate RIP140, Km ATP; read-out: IRAK4 ADPglo biochemical assay IC50
Experimental: The phosphorylation of the substrate RIP140 (SEQ ID1) by IRAK4 at Km ATP was detected with the ADP-Glo Kinase Assay (Promega, Cat #V9103), a luminescent kinase assay which measures the ADP formed from a kinase reaction. (Zegzouti et al. 2009) In a second step the kinase reaction was terminated and all the remaining ATP was depleted. In a final step the ADP was converted into ATP and this newly synthesized ATP was measured by using a luciferase/luciferin reaction with a luminescent reader. The luminescent signal positively correlated with kinase activity, in particular kinase inhibition giving a decrease of the luminescent signal.
For the semi-automated assay, the positive control (100% inhibition) was prepared by diluting 10 mM staurosporine stock mixture (20 μL) in water (3.8 mL) and DMSO (180 μL), thus resulting in a […] staurosporine solution at 1% DMSO (final concentration after further dilution in the kinase reaction).
For the automated assay, no pre-dilution of the 10 mM staurosporine stock was made. 10 mM staurosporine was spotted directly in the assay plate using acoustic dispensing and complemented with DMSO to result in a similar final concentration as mentioned above.
For the semi-automated assay, the negative control (0% inhibition) was prepared by mixing water (3.8 mL) and DMSO (200 μL) resulting in a final concentration of 1% DMSO after further dilution in the kinase reaction. For the automated assay no pre-dilution of DMSO was done. 100% DMSO was spotted directly on the assay plate.
The assay buffer solution was prepared at a concentration corresponding to 5 fold the final (most diluted) assay concentration by mixing a solution of 125 mM TRIS pH 7.5+0.05% Triton X-100+2.5 mM EGTA (5.27 mL) with 1M mgCl2 (72 μL), 1M DTT (57.6 μL), and 200 mM MnCl2 (360 μL).
For example, for the semi-automated method, the enzyme-substrate mixture was prepared by mixing water (3999 μL), assay buffer solution (1380 μL), 1 mM RIP140 (138 μL—SEQ ID1), and 200 ng/mL IRAK 4 (3.45 μL Carna Biosciences, 09 145).
For semi-automated method, the ATP mixture was prepared at a concentration corresponding to 2.5 fold the final (most diluted) assay concentration of the semi-automated method and 1.5 fold the final (most diluted) assay concentration of the automated method. For example, for the semi-automated method, the ATP mixture was prepared by mixing water (4126 μL), assay buffer solution (1380 μL), and 10 mM ATP (13.80 μL).
The assay are performed either in a semi-automated or fully automated manner. The assay volume and the incubation time of the ADP detection were different accordingly the method used.
The compounds were prepared as a serial dilution of 10 point dose responses with 1/5 dilution steps in 100% DMSO starting from 2 mM highest concentration, diluted 1/20 in water. 1 μL was transferred dry to the assay plates.
On each assay plate 32 wells of each control (positive & negative) were added, followed by 2 μL enzyme-substrate mixture.
The reaction was started by adding 2 μL diluted ATP (final concentration Km ATP) on the assay plates. Plates were centrifuged for a few seconds at 1000 rpm followed by an incubation at r.t. for 120 min.
The reactions were stopped and the unconsumed ATP was depleted by adding 5 μL ADP-glo Reagent (Promega, Cat #V9103) to the reaction. The plates were quickly centrifuged at 1000 rpm and incubated at r.t. for 40 min corresponding to full ATP depletion.
The ADP was converted back to ATP and luciferase and luciferin were introduced to detect ATP by adding 10 μL kinase detection reagent (Promega, Cat #V9103) to the reaction. The plates were centrifuged for a few seconds at 1000 rpm and incubated at r.t. for a further 30 min.
Luminescent read out was performed on an Envision luminescent reader (Perkin Elmer).
For the automated assay, the compounds were prepared as a serial dilution of 10 point dose responses with 1/5 dilution steps in 100% DMSO starting from 2 mM highest concentration. […]

Compound	IC50
COc1cc2nc(C3COCCO3)cn2cc1NC(=O)c1cccn(C2CC2)c1=O (single isomer, unassigned) [Compound 8, 1-cyclopropyl-N-[2-(1,4-dioxan-2-yl)-7-methoxy-imidazo[1,2-a]pyridin-6-yl]-2-oxo-pyridine-3-carboxamide]	5 to 10 nM
COc1cc2nc(C3CCOCC3)cn2cc1NC(=O)c1cccn(C2CC2)c1=O [Compound 3, (1-cyclopropyl-N-[7-methoxy-2-(oxan-4-yl)imidazo[1,2-a]pyridin-6-yl]-2-oxopyridine-3-carboxamide)]	5 to 10 nM
NC(=O)c1cc2nc(C3COCCO3)cn2cc1NC(=O)c1cccc(C(F)(F)F)n1 (stereo not shown) [Compound 6, 2-(1,4-dioxan-2-yl)-6-[[6-(trifluoromethyl)pyridine-2-carbonyl]amino]imidazo[1,2-a]pyridine-7-carboxamide]	5 to 10 nM
COc1cc2nc(C3CCOCC3)cn2cc1NC(=O)c1cccc(C(F)(F)F)n1 [Compound 2, N-(7-methoxy-2-tetrahydropyran-4-yl-imidazo[1,2-a]pyridin-6-yl)-6-(trifluoromethyl)pyridine-2-carboxamide]	10 to 50 nM
CC(F)(F)c1cccc(C(=O)Nc2cn3cc(C4COCCO4)nc3cc2C(N)=O)n1 (stereo not shown) [Compound 11, 6-(6-(1,1-difluoroethyl)picolinamido)-2-(1,4-dioxan-2-yl)imidazo[1,2-a]pyridine-7-carboxamide]	5 to 10 nM
COc1cc2nc(C3CCS(=O)(=O)CC3)cn2cc1NC(=O)c1cccn(C2CC2)c1=O [Compound 23, 1-cyclopropyl-N-(2-(1,1-dioxidotetrahydro-2H-thiopyran-4-yl)-7-methoxyimidazo[1,2-a]pyridin-6-yl)-2-oxo-1,2-dihydropyridine-3-carboxamide]	0.1 to 5 nM
COc1cc2nc(C3COCCO3)cn2cc1NC(=O)c1cccn(C2CCC2)c1=O (stereo not shown) [Compound 5, 1-cyclobutyl-N-[2-(1,4-dioxan-2-yl)-7-methoxy-imidazo[1,2-a]pyridin-6-yl]-2-oxo-pyridine-3-carboxamide]	10 to 50 nM
COc1cc2nc(C3COCCO3)cn2cc1NC(=O)c1cccn(C2CC2)c1=O (racemic) [Compound 1, 1-cyclopropyl-N-[2-(1,4-dioxan-2-yl)-7-methoxy-imidazo[1,2-a]pyridin-6-yl]-2-oxo-pyridine-3-carboxamide]	5 to 10 nM
CNC(=O)c1cc2nc(C3COCCO3)cn2cc1NC(=O)c1cccc(C(F)(F)F)n1 (stereo not shown) [Compound 9, 2-(1,4-dioxan-2-yl)-N-methyl-6-(6-(trifluoromethyl)picolinamido)imidazo[1,2-a]pyridine-7-carboxamide]	5 to 10 nM
COc1cc2nc(C3COCCO3)cn2cc1NC(=O)c1cccn(C2CC2)c1=O (single isomer, unassigned) [Compound 7, 1-cyclopropyl-N-[2-(1,4-dioxan-2-yl)-7-methoxy-imidazo[1,2-a]pyridin-6-yl]-2-oxo-pyridine-3-carboxamide]	5 to 10 nM
